From US20130295199A1, “Composition Comprising OPC and Omega-3 for Preventing and/or Inhibiting the Development of Diabetic Retinopathy” (VISIOTACT PHARMA, priority 2011, published 2013)

Tests used:
[1] = test system: retinal acellular capillaries; assay: Quantitation of acellular capillaries in retina of diabetic animals; assay type: in vivo, rat; conditions: FIG. 5, result in words
Procedure: (§1) Sprague-Dawley rats (Harlan), weighing 75-100 g, were assigned to one of eight subgroups, based on non-diabetic, untreated diabetic and treated diabetic groups as indicated here-under. Sprague-Dawley rats were housed in a constant environment (room temperature (22.0±1.5)° C., room humidity (55±5) %) with a normal light-dark cycle (12-hour light, 12-hour dark). Diabetes was induced by intraperitoneal streptozotocin injection (75 mg/kg STZ, 10 mM citrate buffer, pH 4.5). Non-diabetic control animals received an equivalent dose of vehicle (citrate buffer at pH 4.6).
Evaluation of the retinal vasculature is done following adenosine diphosphatase (ADPase) activity in whole embedded retina. After overnight fixation in 2% PFA in 0.1 M cacodylate buffer at 4° C., an incision was made 2 mm posterior to the ora serrata, and the anterior segment of the eye was removed. […] The ADPase-incubated retina was washed in 0.1 M cacodylate buffer with 5% sucrose. […] Retinal microvascular density was quantified using Image J software.
After TUNEL-positive cells were counted, coverslips were soaked off, and the retinal vasculature then was stained with hematoxylin-periodic acid-Schiff. Acellular capillaries were counted in four to seven field areas in the mid retina. […] Although counting the ghosts, at least 1000 capillary cells (endothelial cells and pericytes) were counted in five mid-retinal field areas. […]

[2] = test system: Type-1 streptozotocin-induced diabetic Sprague-Dawley rats; assay: Streptozotocin-induced diabetic rat model: body weight, blood glucose, glycated hemoglobin; assay type: in vivo; conditions: STZ-induced diabetic Sprague-Dawley rats, after 90 days of treatment, n=20/group, mean +/- SEM
Procedure: as §1
To analyse the effect of the composition of the invention, animals are fed as followed:
Diabetic and non-diabetic groups were examined biweekly to follow blood glucose and the body weight was recorded. 50 μL of whole blood was collected in potassium-EDTA tubes (Becton Dickinson) for subsequent analysis of glycated hemoglobin (GHb).

[3] = test system: advanced glycation end product (AGE), retinal carboxymethyl-lysine; assay: Retinal carboxymethyl-lysine measurement (AGE-product quantification), ELISA; assay type: in vivo, rat; conditions: STZ-induced diabetic Sprague-Dawley rats, after 90 days of treatment, n=20/group, mean +/- SEM
Procedure: as §1
Retinal samples were exposed to ultrasonic disruption in RIPA buffer. After tissue debris suppression by centrifugation, protein level of samples was measured using bicinchoninic acid (BCA) protein assay kit (Pierce). Sample (concentration: 50 μg/mL) or advanced glycation end product (AGE)-BSA standard (0 to 200 μM) diluted in 0.05% Tween 20 and 0.2% BSA in 75 mM PBS were placed in duplicate into 96-wells plate (Nunc C96 Maxisorp; eBioscience) coated with solid-phase antigen (1 μg/mL AGE-BSA). Anti-CML rabbit polyclonal antibody was added for 2 hours at room temperature and then washed in 0.2 mM KH2PO4, 1.4 mM K2HPO4, 3 mM NaCl, 0.45 μM sorbic acid potassium, and 0.01% Tween-20 buffer. […] Absorbance was measured at 450 nm on a microplate reader (Biorad).

## docosahexaneoic acid (DHA) [Group G2]
[1]
  Capillary degeneration (degenerated acellular capillaries): significantly inhibited
[2]
  Body weight: 220 ± 10 g
  GHb (glycated hemoglobin): 5.85 +/− 0.03%
  Glucose: 525 ± 10 mg/dL
[3]
  AGE (advanced glycation end product): 0.026 +/− 0.004 AU/mg
